In article PMC2711991 (Cancer research, 2009):
Where a name gives a salt, the structure may show the parent alone.

Tests used:
Format in all cases: cell-based
ABCG2 [1] = biological target: T1, ABCG2 (Homo sapiens, UniProt Q9UNQ0)
T1 sequence (Q9UNQ0 1-655): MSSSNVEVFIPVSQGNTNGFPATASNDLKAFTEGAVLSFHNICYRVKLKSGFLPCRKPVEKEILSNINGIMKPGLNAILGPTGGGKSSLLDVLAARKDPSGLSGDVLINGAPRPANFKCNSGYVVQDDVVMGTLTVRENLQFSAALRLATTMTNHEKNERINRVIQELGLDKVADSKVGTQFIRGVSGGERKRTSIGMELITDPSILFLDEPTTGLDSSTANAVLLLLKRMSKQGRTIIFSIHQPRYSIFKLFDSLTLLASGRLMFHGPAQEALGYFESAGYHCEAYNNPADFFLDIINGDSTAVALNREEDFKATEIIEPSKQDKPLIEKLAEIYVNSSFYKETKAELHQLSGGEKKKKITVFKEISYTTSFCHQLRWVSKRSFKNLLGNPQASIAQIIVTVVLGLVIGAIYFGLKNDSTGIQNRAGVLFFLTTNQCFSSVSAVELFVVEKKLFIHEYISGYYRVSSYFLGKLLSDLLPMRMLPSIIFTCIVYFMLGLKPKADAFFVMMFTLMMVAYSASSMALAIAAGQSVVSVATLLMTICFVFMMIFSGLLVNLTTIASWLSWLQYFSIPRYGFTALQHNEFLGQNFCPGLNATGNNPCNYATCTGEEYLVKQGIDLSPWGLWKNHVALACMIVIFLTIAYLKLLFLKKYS

ABCG2 [2] = biological target: T1, ABCG2; test: BLI D-luciferin efflux inhibition in HEK293/ABCG2/fLuc cells
ABCG2 [3] = biological target: T1, ABCG2; test: BODIPY-prazosin uptake in HEK293/ABCG2 cells at […]

Compound	IC50 (ABCG2 [2])	also measured
CC(C)C(=O)Nc1ccc([N+](=O)[O-])c(C(F)(F)F)c1 [flutamide]	–	BODIPY-prazosin uptake in HEK293/ABCG2 cells at 20 μM; BLI 6.1-fold enhancement; (ABCG2 [1]): flutamide|Y|Y
C=C(C)[C@H]1Cc2c(ccc3c2O[C@@H]2COc4cc(OC)c(OC)cc4[C@@H]2C3=O)O1 [rotenone]	–	BODIPY-prazosin uptake in HEK293/ABCG2 cells at 20 μM; BLI 6.7-fold enhancement; (ABCG2 [3]): rotenone|Y|Y
COc1cc2nc(N3CCN(C(=O)C4COc5ccccc5O4)CC3)nc(N)c2cc1OC (centres unmarked) [doxazosin mesylate]	~8 µM	–

More lines, main results first:

IC50 (ABCG2 [2])	Compound	also measured
~8.2 µM	COc1cc(N)c(Cl)cc1C(=O)NC1CCN(Cc2ccccc2)CC1 [clebopride maleate]	–
~20 µM	Cc1c(-c2ccccc2)oc2c(C(=O)OCCN3CCCCC3)cccc2c1=O [flavoxate hydrochloride]	–
